Measured values: patent publication US20250051347A1, “BIFUNCTIONAL CHIMERIC HETEROCYCLIC COMPOUND AND USE THEREOF AS ANDROGEN RECEPTOR DEGRADER” (Hinova Pharmaceuticals, Inc., priority 2021, published 2025)

Biological target: T1, androgen receptor (AR) splicing variant AR-v7 (Homo sapiens, UniProt P10275)
T1 construct: The degradation activity of compounds on AR-v7 in 22RV1 cells; host or cells: 22RV1 cells
T1 sequence (P10275 1-644 isoform P10275-3): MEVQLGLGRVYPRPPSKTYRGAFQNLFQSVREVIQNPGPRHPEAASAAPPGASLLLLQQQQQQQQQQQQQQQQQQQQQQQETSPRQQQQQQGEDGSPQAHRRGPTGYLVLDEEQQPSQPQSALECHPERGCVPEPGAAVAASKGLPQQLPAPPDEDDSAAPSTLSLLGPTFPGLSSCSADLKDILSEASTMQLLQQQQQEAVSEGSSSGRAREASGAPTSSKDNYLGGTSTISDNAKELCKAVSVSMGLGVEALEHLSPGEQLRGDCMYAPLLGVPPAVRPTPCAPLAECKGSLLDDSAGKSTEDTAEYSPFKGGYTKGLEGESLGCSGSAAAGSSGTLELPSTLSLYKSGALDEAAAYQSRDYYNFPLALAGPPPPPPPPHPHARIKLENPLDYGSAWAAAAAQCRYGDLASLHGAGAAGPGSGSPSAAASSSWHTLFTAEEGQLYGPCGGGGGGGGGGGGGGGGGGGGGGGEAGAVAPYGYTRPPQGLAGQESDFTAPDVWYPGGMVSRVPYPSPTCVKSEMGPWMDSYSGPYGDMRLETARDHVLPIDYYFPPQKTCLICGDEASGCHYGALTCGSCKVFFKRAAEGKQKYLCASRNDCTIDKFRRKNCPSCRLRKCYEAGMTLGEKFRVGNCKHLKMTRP
Assay: Degradation activity on androgen receptor splicing variant AR-v7 in 22RV1 cells (ELISA)
Assay type: cell-based
Conditions: AR-v7 degradation in 22RV1 cells, 48 h, class symbols

DC50 [nM] | SMILES
1000 to 5000 | CC(C)(c1ccc(OCCCNc2ccc3c(c2)C(=O)N(C2CCC(=O)NC2=O)C3=O)cc1)c1ccc(OCc2ccnc(S(C)(=O)=O)n2)cc1 (stereo not shown) [Example 67, 2-(2,6-dioxopiperidin-3-yl)-5-((3-(4-(2-(4-(4-(2-(methanesulfonyl)pyrimidin-4-yl)methoxy)phenyl)propan-2-yl)phenoxy)propyl)amino)isoindolin-1,3-dione]
11 to 100 | CC(C)(c1ccc(OCc2ccnc(N3CCC4(CC3)COC4)n2)cc1)c1ccc(OC2CC(Nc3ccc4c(c3)C(=O)N(C3CCC(=O)NC3=O)C4=O)C2)cc1 (stereo not shown) [Example 78, 5-((3-(4-(2-(4-((2-(2-oxa-7-azaspiro[3.5]nonan-7-yl)pyrimidin-4-yl)methoxy)phenyl)propan-2-yl)phenoxy)cyclobutyl)amino)-2-(2,6-dioxopiperidin-3-yl)isoindolin-1,3-dione]
11 to 100 | CN1CCC2(CCN(c3nccc(COc4ccc(C(C)(C)c5ccc(OC6CC(Nc7ccc8c(c7)C(=O)N(C7CCC(=O)NC7=O)C8=O)C6)cc5)cc4)n3)C2)C1 (stereo not shown) [Example 79, 2-(2,6-dioxopiperidin-3-yl)-5-((3-(4-(2-(4-((2-(7-methyl-2,7-diazaspiro[4.4]nonan-2-yl)pyrimidin-4-yl)methoxy)phenyl)propan-2-yl)phenoxy)cyclobutyl)amino)isoindolin-1,3-dione]
11 to 100 | CC(C)(c1ccc(OCc2ccnc(N3CC4CNCC4C3)n2)cc1)c1ccc(OC2CC(Nc3ccc4c(c3)C(=O)N(C3CCC(=O)NC3=O)C4=O)C2)cc1 (stereo not shown) [Example 80]
11 to 100 | CC(C)(c1ccc(OCc2ccnc(N3CCC4(CCNC4)C3)n2)cc1)c1ccc(O[C@H]2C[C@H](Nc3ccc4c(c3)C(=O)N(C3CCC(=O)NC3=O)C4=O)C2)cc1 (stereo partly shown) [Example 81, 5-(((1r,3r)-3-(4-(2-(4-((2-(2,7-diazaspiro[4.4]nonan-2-yl)pyrimidin-4-yl)methoxy)phenyl)propan-2-yl)phenoxy)cyclobutyl)amino)-2-(2,6-dioxopiperidin-3-yl)isoindolin-1,3-dione]
11 to 100 | CC(C)(c1ccc(OCc2ccnc(N3CCC4(CNC4)C3)n2)cc1)c1ccc(O[C@H]2C[C@H](Nc3ccc4c(c3)C(=O)N(C3CCC(=O)NC3=O)C4=O)C2)cc1 (stereo partly shown) [Example 83, 5-(((1r,3r)-3-(4-(2-(4-((2-(2,6-diazaspiro[3.4]octan-6-yl)pyrimidin-4-yl)methoxy)phenyl)propan-2-yl)phenoxy)cyclobutyl)amino)-2-(2,6-dioxopiperidin-3-yl)isoindolin-1,3-dione]
11 to 100 | CC(C)(c1ccc(OCc2ccnc(N3CCC4(CC3)CNC4)n2)cc1)c1ccc(O[C@H]2C[C@@H](Nc3ccc4c(c3)C(=O)N(C3CCC(=O)NC3=O)C4=O)C2)cc1 (stereo partly shown) [Example 84, 5-(((1s,3s)-3-(4-(2-(4-((2-(2,7-diazaspiro[3.5]nonan-7-yl)pyrimidin-4-yl)methoxy)phenyl)propan-2-yl)phenoxy)cyclobutyl)amino)-2-(2,6-dioxopiperidin-3-yl)isoindolin-1,3-dione]
11 to 100 | CC(C)(c1ccc(OCc2ccnc(N3CC4(CCNCC4)C3)n2)cc1)c1ccc(O[C@H]2C[C@@H](Nc3ccc4c(c3)C(=O)N(C3CCC(=O)NC3=O)C4=O)C2)cc1 (stereo partly shown) [Example 85, 5-(((1s,3s)-3-(4-(2-(4-((2-(2,7-diazaspiro[3.5]nonan-2-yl)pyrimidin-4-yl)methoxy)phenyl)propan-2-yl)phenoxy)cyclobutyl)amino)-2-(2,6-dioxopiperidin-3-yl)isoindolin-1,3-dione]
11 to 100 | CC(C)(c1ccc(OCc2ccnc(N3CC4(CNC4)C3)n2)cc1)c1ccc(O[C@H]2C[C@@H](Nc3ccc4c(c3)C(=O)N(C3CCC(=O)NC3=O)C4=O)C2)cc1 (stereo partly shown) [Example 86]
11 to 100 | CC(C)(c1ccc(OCc2ccnc(N3CCC4(CC3)COC4)n2)cc1)c1ccc(O[C@H]2C[C@@H](Nc3ccc4c(c3)C(=O)N(C3CCC(=O)NC3=O)C4=O)C2)cc1 (stereo partly shown) [Example 87, 5-(((1s,3s)-3-(4-(2-(4-((2-(2-oxa-7-azaspiro[3.5]nonan-7-yl)pyrimidin-4-yl)methoxy)phenyl)propan-2-yl)phenoxy)cyclobutyl)amino)-2-(2,6-dioxopiperidin-3-yl)isoindolin-1,3-dione]
101 to 1000 | CC(C)(c1ccc(OCc2ccnc(N3CC4(COC4)C3)n2)cc1)c1ccc(O[C@H]2C[C@@H](Nc3ccc4c(c3)C(=O)N(C3CCC(=O)NC3=O)C4)C2)cc1 (stereo partly shown) [Example 92, 3-(6-(((1s,3s)-3-(4-(2-(4-((2-(2-oxa-6-azaspiro[3.3]heptane-6-yl)pyrimidin-4-yl)methoxy)phenyl)propan-2-yl)phenoxy)cyclobutyl)amino)-1-oxoisoindolin-2-yl)piperidin-2,6-dione]

The next lines start with the compound.

SMILES | DC50 [nM]
CC(C)(c1ccc(OCCCCOCCCCNc2ccc3c(c2)C(=O)N(C2CCC(=O)NC2=O)C3=O)cc1)c1ccc(OCc2ccnc(NS(C)(=O)=O)n2)cc1 (stereo not shown) [Example 54, N-(4-((4-(2-(4-(4-(4-((2-(2,6-dioxopiperidin-3-yl)-1,3-dioxoisoindolin-5-yl)amino)butoxy)butoxy)phenyl)isopropan-2-yl)phenoxy)methyl)pyrimidin-2-yl)methanesulfonamide] | 101 to 1000
CCC(CC)(c1ccc(OCCCCCCCCOCCCCNc2ccc3c(c2)C(=O)N(C2CCC(=O)NC2=O)C3=O)cc1)c1ccc(OCc2ccnc(NS(C)(=O)=O)n2)cc1 (stereo not shown) [Example 57, N-(4-((4-(3-(4-((8-(4-((2-(2,6-dioxopiperidin-3-yl)-1,3-dioxoisoindolin-5-yl)amino)butoxy)octyl)oxy)phenyl)pentan-3-yl)phenoxy)methyl)pyrimidin-2-yl)methanesulfonamide] | 101 to 1000
CS(=O)(=O)Nc1cc(COc2ccc(C3(c4ccc(OCCCCCCCCOCCCCNc5ccc6c(c5)C(=O)N(C5CCC(=O)NC5=O)C6=O)cc4)CCC3)cc2)ccn1 (stereo not shown) [Example 58] | 1000 to 5000
CC(C)(c1ccc(OCCCNc2cccc3c2C(=O)N(C2CCC(=O)NC2=O)C3=O)cc1)c1ccc(OCc2ccnc(N3CCOCC3)n2)cc1 (stereo not shown) [Example 59] | 11 to 100
CN1CCN(c2nccc(COc3ccc(C(C)(C)c4ccc(OCCCNc5cccc6c5C(=O)N(C5CCC(=O)NC5=O)C6=O)cc4)cc3)n2)CC1 (stereo not shown) [Example 60] | 101 to 1000
CC1CN(c2nccc(COc3ccc(C(C)(C)c4ccc(OCCCCCCCCOCCCCNc5ccc6c(c5)C(=O)N(C5CCC(=O)NC5=O)C6=O)cc4)cc3)n2)C1 (stereo not shown) [Example 63] | 1000 to 5000

Same assay, conditions: AR-v7 degradation in 22RV1 cells, 48 h, numeric values

DC50 [nM] | SMILES
5200 | CC(C)(c1ccc(OCc2ccnc(NS(C)(=O)=O)n2)cc1)c1ccc(OC[C@H]2CC[C@H](COCCCCCNc3ccc4c(c3)C(=O)N(C3CCC(=O)NC3=O)C4=O)CC2)cc1 (stereo partly shown) [Example 56, N-(4-((4-(2-(4-(((1r,4r)-4-(((5-((2-(2,6-dioxopiperidin-3-yl)-1,3-dioxoisoindolin-5-yl)amino)pentyl)oxy)methyl)cyclohexyl)methoxy)phenyl)isopropan-2-yl)phenoxy)methyl)pyrimidin-2-yl)methanesulfonamide]
> 10000 | CC(C)(c1ccc(OCCCCCCCCOCCCCNc2ccc3c(c2)C(=O)N(C2CCC(=O)NC2=O)C3=O)cc1)c1ccc(N2CCc3cnc(N4CC5(COC5)C4)nc3C2)cc1 (stereo not shown) [Example 65, 5-((4-((8-(4-(2-(4-(2-(2-oxa-6-azaspiro[3.3]heptan-6-yl)-5,8-dihydropyrido[3,4-d]pyrimidin-7(6H)-yl)phenyl)propan-2-yl)phenoxy)octyl)oxy)butyl)amino)-2-(2,6-dioxopiperidin-3-yl)isoindolin-1,3-dione]
